Marks after values point to notes of the source that are not given here.
Experiments:
hippocampal neurons [1] = experiment: Neurite outgrowth, hippocampal neurons; assay type: cell-based, rat; conditions: at 0.3 μg/ml
Procedure: (§1) The cultures were subsequently immunostained for tyrosine hydroxylase. Hippocampal neurons and CGN were plated at a density of 10,000 cells/cm^2 on 8-well permanox chamber slides and incubated for 24 hours in the presence of various concentrations of FGLd. Subsequently the neurons were immunostained for GAP-43. Results from at least five independent experiments for each neuronal culture are shown as percentage ±SEM with the untreated controls set at 100%. *p<0.05, **p<0.01, ***p<0.001 when compared to the controls.
Results from at least four independent experiments are shown as percentage SEM with untreated controls set at 100%. **p<0.01 when compared to the controls.
(§2) Peptide solutions without or with inhibitors of various signal transduction pathways were added to a total volume of 300 μl/cm^2, and the slides were incubated at 37° C. After 24 hours, the neurons were fixed with 4% (v/v) formaldehyde for 20 minutes and thereafter immunostained using primary rabbit antibodies against GAP-43 and Alexa Fluor secondary goat anti-rabbit antibodies. Images of at least 200 neurons for each group in each individual experiment were obtained systematically by using computer assisted fluorescence microscopy as previously described (Rønn et al., 2000 op. cit.). Briefly, a Nikon Diaphot inverted microscope with a Nikon Plan 20× objective (Nikon, Tokyo, Japan) coupled to a video camera (Grundig Electronics, Germany) was used for recordings. The same software package as described above for the dopaminergic neurite outgrowth assay was used to process the recorded images.

[2] = test system: cerebellar granule neurons (CGN); experiment: Survival of CGN induced to undergo apoptosis by low KCl; conditions: for Neuronal Survival (% of Control): Low K+ (5 mM)
Procedure: Cerebella granular meurons (CGN) (e and f) from postnatal day 7 rats were grown at a density of 100,000 cells/cm^2 for 7 days on poly-L-lysine coated microtiter plates in the medium containing 40 mM KCl, then the medium was substituted to a 5 mM KCl containing medium supplemented with various concentrations of FGLd.
For the experiments cerebellar tissue was dissected in modified Krebs-Ringer solution kept on ice, and treated as described for the hippocampal neurons above. All cell cultures were incubated at 37° C. in a humidified atmosphere containing 5% CO2.
Primary cultures of CGN were plated at a density of 100,000 cells/cm^2 on poly-L-lysine coated 8-well permanox slides in Neurobasal-A medium (Gibco, BRL) supplemented with 2% (v/v) B27, 0.5% (v/v) glutamax, 100 U/ml penicillin, 100 μg/ml streptomycin and KCl, making the final concentration of KCl in the medium 40 mM. 24 hours after plating, cytosine-β-D-arabinofuranoside (Ara-C; Sigma-Aldrich) was added to a final concentration of 10 μM to avoid proliferation of glial cells, after which the neurons were allowed to differentiate for further six days at 37° C. Apoptotic cell death was induced by washing twice and changing the medium to Basal Medium Eagle (BME; Gibco BRL) supplemented with 1% (v/v) glutamine, 100 U/ml penicillin and 100 μg/ml streptomycin, 3.5 g D-glucose/l and 1% (v/v) sodium pyruvate (Gibco BRL) together with various concentrations of peptide. Thereby the concentration of potassium in the cultures was reduced to 5 mM KCl. Two days after induction of apoptosis, the cells were fixed with 4% formaldehyde and stained with Hoechst 33258 as described for the survival assay employing hippocampal neurons.

dopaminergic neurons [3] = experiment: Neurite outgrowth, dopaminergic neurons; assay type: cell-based, rat; conditions: DN E14, 72 h
Procedure: as §1
After 72 hours of incubation, the neurons were fixed with 4% (v/v) formaldehyde and immunostained using a primary mouse monoclonal antibody against tyrosine hydroxylase and secondary biotinylated sheep anti-mouse antibodies followed by incubation with peroxidase conjugated streptavidin. 98 images for each experimental condition in each individual experiment were automatically recorded using a computerised microscope workstation described by Walmod et al. (2002) Toxicol Appl Pharmacol. 181:1-15. Briefly, the workstation consisted of an Eclipse TE 300 inverted microscope (Nikon, Tokyo, Japan) equipped with a motorised, movable microscope stage (LUDL Electronic Production Ltd, Hawthorne, N.Y., USA), a 10× objective and a 1100 analogue b/w CCD video camera (DFA, Denmark). A software package Prima developed at the Protein Laboratory (Copenhagen University, Denmark) was used to make a stereologically based determination of neurite length according to Rønn et al., (2000) J Neurosci Methods. 100:25-32).

[4] = test system: FGL-induced neurite outgrowth in CGN cultures; experiment: Effect of inhibitors of FGFR, MEK and PI3K on FGL-induced neurite outgrowth in CGN; assay type: cell-based, rat; conditions: Rattus norvegicus, 27 μg/ml FGLd, FGLd-treated control = 100%, read-out: FGLd-induced neurite outgrowth in CGN in presence of inhibitor
Procedure: CGN cultures were grown for 24 hours at a density of 10,000 cells/cm^2 on 8-well permanox slides in the presence of the FGL peptide and an inhibitor. PD98059 ([…]) was added at concentrations of 12.5, 25 and 50 μM simultaneously with 10 μg/ml FGLd; LY294002 (▴) was added at concentrations of 3.5, 7 and 10 μM simultaneously with 27 μg/ml FGLd. SU5402 (▪) was added in concentrations of 20, 40 and 80 μM simultaneously with 27 μg/ml FGLd. After the treatment cells were fixed and immunostained for GAP-43. Results from at least four independent experiments are shown as percentage ±SEM, with FGLd-treated control cultures set at 100%. The dashed line indicates the average neurite length in cultures without FGLd-treatment. *p<0.05, **p<0.01 when compared to the FGLd-treated controls.
as §2

[5] = test system: organotypic hippocampal neuronal slice cultures (OHSC); experiment: OGD, propidium iodide staining of OHSC; assay type: cell-based, rat; conditions: control peptide
Source text: In the present study it was investigated the effect of the FGL peptide on synaptic plasticity, neuronal function and vulnerability following oxygen and glucose deprivation (OGD) in organotypic hippocampal neuronal slice cultures (OHSC) from 7-day-old Wistar rats according to method of Stoppini et al. (1991) Neurosci Methods. 37:173-82 and primary cultures of dissociated hippocampal neurons from 1-day-old rats according to method of Maar et al. (1997) J Neurosci Res. 47:163-72. Primary cell cultures were maintained for 11-12 days and OHSC for 12-14 days prior to adding FGLd.
The primary cell cultures and OHSC were exposed to OGD for 10 and 20 minutes. Following OGD, the cultures were again supplied with oxygen and glucose and analysed at 1, 4 or 24 hour time point after introduction of OGD exposure. FGLd (or the control peptide FGLc) was added 24 hr before, immediately, or 1 hr or 24 hr after OGD. When administered prior to OGD, FGLd was removed from the medium when introducing OGD. In some cases, the slice cultures were treated with FGLd only at 4 hr after OGD. In addition, the FGFR inhibitor, SU5402 (25 μM), was added together with FGLd in some of the set-ups.
In hippocampal neuronal cultures, FM 1-43 staining was used to evaluate pre-synaptic function (described above). Cell viability in both primary cell cultures and OHSC was measured using the […] [3-(4,5-dimethylthiazol-2-yl)-2,5-diphenyltetrazolium bromide] assay according to Malich et al, (1997) Toxicology. 124:179-92. In, addition, cell viability in OHSC was measured using propidium iodide (PI) staining according to Laake et al. (1999) Brain Res Brain Res Protoc. 4:173-84.

hippocampal neurons [6] = experiment: Survival of hippocampal neurons exposed to Aβ25-35; assay type: cell-based, rat; conditions: 50 ng/ml; 20 μM Aβ25-35
Procedure: For the experiments dissociated hippocampal neurons were isolated from Wistar rat embryos at embryonic day 19 or newborn rats as described by Rønn et al. (1999) Nat. Biotechnol. 17:1000-5.
Briefly, hippocampus was isolated from the brain in ice cold modified Krebs Ringer solution, cleared of blood vessels, roughly homogenised by chopping and then trypsinised. The dissociated cells were washed in the presence of DNAse 1 and soybean trypsin inhibitor.
For the assay neurons were plated at a density of 40,000 cells/cm^2 on 8-well permanox slides coated with 10 μg/ml poly-L-lysine in Neurobasal medium. 15 minutes after plating, Aβ25-35 was added to a final concentration of 20 μM. The Aβ25-35 had prior to plating been dissolved in sterile deionized water to a concentration of 3 mM and incubated at 37° C. for four days according to Pigino et al. (2001) J. Neurosci. 21:834-42. This treatment induces fibrillation of the Aβ-peptide fragment, thereby increasing its neurotoxic activity. The neurons were incubated with Neurobasal medium containing the FGL peptide for 70 hours, fixed with 4% (v/v) formaldehyde, and stained with Hoechst 33258 for 25 minutes as described by Kruman et al. (1997). Images of 1000-1500 neurons were randomly recorded for each group in each experiment using computer assisted fluorescence microscopy as described for the hippocampal neurite outgrowth assay. Nuclei from dead and live neurons were counted using the software package Prima developed at the Protein Laborator, Copenhagen University, and the fraction of live neurons relative to the total number of neurons was estimated.

dopaminergic neurons [7] = experiment: Survival of dopaminergic neurons exposed to 6-OHDA; assay type: cell-based, rat; conditions: 10 ng/ml; 6-OHDA-treated control cells set to 100%
Procedure: Dopaminergic neurons (DN) (a and b) from day 15 rat embryos grown at a density of 150,000 cells/cm^2 for six days without or with various concentrations of peptide on 24-well cell culture plates coated with poly-D-lysine were exposed to 100 μM 6-OHDA for two hours. Medium was changed and various concentrations of FGLd were added. The neurons were grown for another 24 hours before the cultures they were fixed and immunostained for tyrosine hydroxylase.
Dopaminergic neurons were prepared from Wistar rat embryos at embryonic day 15 (Charles River, Sulzfeld, Germany or Møllegaard, Denmark). A pregnant rat was sacrificed and the uterus was taken out and kept on ice in Hank's balanced salt solution (HBSS; Gibco, BRL). The ventral part of the mesencephalon was dissected from the embryonic brains, homogenised on ice in Gey's balanced salt solution (GBSS; Gibco, BRL) supplemented with 5 g glucose/l (Sigma-Aldrich) and thereafter trypsinised. The dissociated cells were washed in the presence of DNAse 1 and soybean trypsin inhibitor (Sigma-Aldrich).
For the survival assay isolated neurons were seeded at a density of 150,000 cells/cm^2 in 24-well cell culture plates coated with poly-D-lysine as described above. The neurons were left to differentiate for six days without or with various concentrations of the FGL peptide, after which 6-OHDA was added at a concentration of 100 μM for two hours. A stock solution was prepared by dissolving 6-OHDA to a concentration of 10 mM in 0.1% (w/v) sodium metabisulfite in order to prevent oxidation. After two hours with 6-OHDA, the medium was changed to Neurobasal medium with supplements and peptide, and the cell cultures were further incubated for 24 hours, fixed and immunostained for tyrosine hydroxylase. 98 images for each experimental condition in each individual experiment were automatically recorded as described for the dopaminergic neurite outgrowth assay below.

11-amino acids fragment of the sequence set forth in SEQ ID NO: 5: SEQ ID NO: 5 (VAENSRGKNVAKG) with two amino acids truncated from the C-terminus; from axonal-associated cell adhesion molecule (Axonal-associated cell adhesion molecule [NCBI: NP_446331]: FGFR binding motif)
maximal effect, increase in neurite length of rat hippocampal neurons (hippocampal neurons [1]): 500%

IGF-1: insulin-like growth factor 1
rescue of CGN from low KCl-induced cell death ([2]; 50 ng/ml, 5 mM KCl): could be rescued

EVYVVAENQQGKSKA (NCAM Fn III, 2 [Swiss-Prot: P13591]: FGFR binding motif) [FGLm]
Effect on Neurite Length (Percent Increase vs. Control) (dopaminergic neurons [3]; 10 μg/mL): 15%
Effect on Neurite Length (Percent Increase vs. Control) (dopaminergic neurons [3]; 50 μg/mL): 23%
Effect on Neurite Length (Percent Increase vs. Control) (dopaminergic neurons [3]; 250 μg/mL): 28%
Neuronal Survival (% of Control) ([2]; CGN (PND 3-4), 250 μg/mL): 125%* % of Control
Neuronal Survival (% of Control) ([2]; CGN (PND 7-8), 10 μg/mL): 110%* % of Control
Neuronal Survival (% of Control) ([2]; CGN (PND 7-8), 50 μg/mL): 119%* % of Control
Neuronal Survival (% of Control) ([2]; CGN (PND 7-8), 250 μg/mL): 142%* % of Control

O=c1cc(N2CCOCC2)oc2c(-c3ccccc3)cccc12 [LY294002]
FGLd-induced neurite outgrowth (% of FGLd-treated control) at 3.5 µM ([4]; 3.5 μM inhibitor): 90%
FGLd-induced neurite outgrowth (% of FGLd-treated control) at 10 µM ([4]; 10 μM inhibitor): ~50%

EVYVVAENMGKSKA [FGLc]
PI staining (cell damage) after 10 minutes of OGD [5]: did not affect cell damage induced by OGD

B1: BDNF: brain derived neurotrophic factor (protein, UniProt P23560 19-247, looked up)
Neurotrophic factor BDNF …: APMKEANIRGQGGLAYPGVRTHGTLESVNGPKAGSRGLTSLADTFEHVIEELLDEDQKVRPNEENNKDADLYTSRVMLSSQVPLEPPLLFLLEEYKNYLDAANMSMRVRRHSDPARRGELSVCDSISEWVTAADKKTAVDMSGGTVTVLEKVPVSKGQLKQYFYETKCNPMGYTKEGCRGIDKRHWNSQCRTTQSYVRALTMDSKKRIGWRFIRIDTSCVCTLTIKRGR
rescue of hippocampal neurons from Aβ25-35-induced cell loss (hippocampal neurons [6]): could in part be rescued

B2: GDNF: glia derived neurotrophic factor (protein, UniProt P39905 78-211, looked up)
Glial cell line-derived …: SPDKQMAVLPRRERNRQAAAANPENSRGKGRRGQRGKNRGCVLTAIHLNVTDLGLGYETKEELIFRYCSGSCDAAETTYDKILKNLSRNRRLVSDKVGQACCRPIAFDDDLSFLDDNLVYHILRKHSAKRCGCI
survival of dopaminergic neurons treated with 6-OHDA (dopaminergic neurons [7]): 150%
